Assay results as given in patent US10914722B2, “Sensor array and apparatus for simultaneous observation of tissue electrophysiology, contractility, and growth” (Lawrence Livermore National Security, LLC, priority 2017, dated 2021).

Tested on: human induced pluripotent stem cell-derived cardiomyocytes (iPS-CMs)
Assay: simultaneous field potential (MEA), impedance (IDE) and optical recording of cardiac tissue pre-/post-drug exposure and after wash-out
Format: cell-based
Source text: Measurements were repeated once more after washing the culture to flush the blebbistatin from the system. FIGS. 7A-7C show the field potential (left) and corresponding impedance changes (right) prior to exposure to blebbistatin (FIG. 7A), after exposure to blebbistatin (FIG. 7B) and following flushing of blebbistatin from the system (FIG. 7C).
Prior to compound addition, the tissue beat spontaneously and rhythmically at a rate of 14 bpm, as shown from both the FP profile and impedance profile of FIG. 7A.
Human iPS-CMs were purchased from Cellular Dynamics International (Madison, Wis.). Cells were stored in liquid nitrogen before use. Prior to cell seeding, device culture chambers were sterilized with 70% ethanol, rinsed with autoclaved water, then incubated overnight with 40 μg/mL fibronectin (Sigma-Aldrich, St Louis, Mo.) at 37° C. Cells were seeded at a density of 120K cells/cm2 and kept in an incubator at 37° C. and 5% CO2. Media was exchanged 4 hrs after seeding, then every 48 hours subsequently.
The MEA was connected via electrical connector(s), preferably OMNETICS™ connectors to an AlphaLab SnR multi-channel recording system (Alpha Omega, Alpharetta, Ga.) to record voltages as a function of time across all 16 electrodes of the MEA. Offline analysis of temporal differences between the 16 electrodes when voltage spikes occur generates an activation map. The activation map illustrates FP spatial propagation in the cardiac tissue monolayer across the surface area of the device.
For measuring cardiac contraction, high-speed impedance time recording was performed using a Keysight E4990A Impedance Analyzer (Keysight Technologies Inc., Santa Rosa, Calif.) and controlled using custom LabVIEW software (National Instruments, Austin, Tex.). For each device, impedance was measured at multiple frequencies between 5 kHz and 200 kHz to determine the frequency range that gives the highest signal-to-noise ratio.
Norepinephrine and blebbistatin were purchased from Sigma-Aldrich (St Louis, Mo., USA). Both drugs were dissolved in 0.1% dimethyl sulfoxide and stored at −20° C. Drugs were diluted to desired concentrations in cell media immediately before use. Prior to drug exposure, pre-drug electrophysiology and contraction data of the cardiac tissues on a device were collected for five minutes. Next, cell media was removed from the chamber on the device, drug was added and device was incubated at 37° C. and 5% CO2 for 15 minutes. Recording was again started with the drug. Afterwards, the drug solution was removed and the culture chamber was rinsed three times with cell media, incubated at 37° C. and 5% CO2 for another 15 minutes before performing drug wash-out measurements.

[1] = after incubation with 10 μM, FIG. 7B

## Cc1ccc2c(c1)C(=O)C1(O)CCN(c3ccccc3)C1=N2 (stereo not shown) [blebbistatin]
[1]
  action potential pattern (MEA data): not affected
  impedance recording (contraction signal, IDE): flat baseline signal
After incubation with 10 μM, pre-drug spontaneous beating at 14 bpm, FIG. 7B
  tissue contraction observed under an optical microscope: static
wash-out after 10 μM exposure, FIG. 7C
  tissue contractility after washing out (impedance peaks and optical observation): restored the tissue contractility
